# ChEMBL document CHEMBL1240532, “Spiroindolones, a potent compound class for the treatment of malaria” (Science, 2010)
# pIC50: −log10 of the molar value. Calls of active or inactive are those of the source. The calls are words filed in the database; no cut-off is given here.
# What was measured:
# Plasmodium falciparum [1] = assay: Antimalarial activity against NITD609-resistant Plasmodium falciparum Dd2 Clone2 bearing P-type ATPase4 T418N and P990R mutations after 72 hrs by SYBR green based fluorescence assay; assay type: functional, organism-based; conditions: Dd2, 72 h
# Plasmodium falciparum [2] = assay type: functional, organism-based; conditions: Dd2, 72 h
# Plasmodium falciparum [3] = assay: Antimalarial activity against Plasmodium falciparum Dd2 after 72 hrs by SYBR green based fluorescence assay; assay type: functional, organism-based; conditions: Dd2, 72 h
# Plasmodium falciparum [4] = assay: Antimalarial activity against NITD609-resistant Plasmodium falciparum Dd2 Clone1 bearing P-type ATPase4 I398F and P990R mutations after 72 hrs by SYBR green based fluorescence assay; assay type: functional, organism-based; conditions: Dd2, 72 h
# Plasmodium berghei [5] = assay: Antimalarial activity against Plasmodium berghei GFP ANKA infected in NMRI mice (Mus musculus) assessed as reduction in parasitaemia at 10 mg/kg, perorally administered as single dose 24 hrs post infection for 1 day measured 72 hrs post infection; assay type: functional; design: scale not given: the % may be the effect or the level left; conditions: route oral
# Plasmodium falciparum [6] = assay: Antimalarial activity against Plasmodium falciparum 3D7 assessed as parasite growth inhibition at 8 nM after 6 hrs by [3H]hypoxanthin incorporation assay; assay type: functional
# Plasmodium berghei [7] = assay: Antimalarial activity against Plasmodium berghei GFP ANKA infected in NMRI mice (Mus musculus) assessed as reduction in parasitaemia at 30 mg/kg, perorally administered as single dose 24 hrs post infection for 1 day measured 72 hrs post infection; assay type: functional; design: scale not given: the % may be the effect or the level left; conditions: route oral
# Plasmodium berghei [8] = assay: Antimalarial activity against Plasmodium berghei GFP ANKA infected in NMRI mice (Mus musculus) assessed as survival at 10 mg/kg, perorally administered through 7% Tween80/3% Ethanol formulation 24 hrs post infection for 3 days measured 96 hrs post infection; assay type: functional; conditions: route oral
# Plasmodium berghei [9] = assay: Antimalarial activity against Plasmodium berghei GFP ANKA infected in NMRI mice (Mus musculus) assessed as survival at 100 mg/kg, perorally administered as single dose 24 hrs post infection for 1 day measured 72 hrs post infection; assay type: functional; conditions: route oral
# Plasmodium berghei [10] = assay: Antimalarial activity against Plasmodium berghei GFP ANKA infected in NMRI mice (Mus musculus) assessed as survival at 10 mg/kg, perorally administered as single dose as single dose 24 hrs post infection for 1 day measured 72 hrs post infection; assay type: functional; conditions: route oral
# Plasmodium berghei [11] = assay: Antimalarial activity against Plasmodium berghei GFP ANKA infected in NMRI mice (Mus musculus) assessed as survival at 30 mg/kg, perorally administered as single dose 24 hrs post infection for 1 day measured 72 hrs post infection; assay type: functional; conditions: route oral
# Plasmodium berghei [12] = assay: Antimalarial activity against Plasmodium berghei GFP ANKA infected in NMRI mice (Mus musculus) assessed as reduction in parasitaemia at 10 mg/kg, perorally administered through 7% Tween80/3% Ethanol formulation 24 hrs post infection for 3 days measured 96 hrs post infection; assay type: functional; design: scale not given: the % may be the effect or the level left; conditions: route oral
# Plasmodium falciparum [13] = assay: Antimalarial activity against Plasmodium falciparum assessed as […] by SYBR green based fluorescence assay; assay type: functional, organism-based; conditions: for pIC50: Plasmodium falciparum
# Plasmodium falciparum [14] = assay: microbe, parasite or virus in culture; conditions: Dd2, 72 h
# Description: Antimalarial activity against Plasmodium falciparum Dd2 containing attB site inserted in parasite genome and using CAM promoter driven expressing ATP4 I398F/P990R mutant after 72 hrs by SYBR green based fluorescence assay
# Plasmodium falciparum [15] = assay: microbe, parasite or virus in culture; conditions: Dd2, 72 h; remark: listed apart in the source
# Description: Antimalarial activity against Plasmodium falciparum Dd2 containing attB site inserted in parasite genome and using EF1-alpha promoter driven expressing ATP4 D1247Y mutant after 72 hrs by SYBR green based fluorescence assay
# Plasmodium falciparum [16] = assay: microbe, parasite or virus in culture; conditions: Dd2, 72 h; remark: listed apart in the source
# Description: Antimalarial activity against Plasmodium falciparum Dd2 containing attB site inserted in parasite genome and using EF1-alpha promoter driven expressing ATP4 I398F/P990R mutant after 72 hrs by SYBR green based fluorescence assay
# Plasmodium falciparum [17] = assay: microbe, parasite or virus in culture; conditions: Dd2, 72 h; remark: listed apart in the source
# Description: Antimalarial activity against Plasmodium falciparum Dd2 containing attB site inserted in parasite genome and using CAM promoter driven expressing ATP4 D1247Y mutant after 72 hrs by SYBR green based fluorescence assay
# Plasmodium falciparum [18] = assay: microbe, parasite or virus in culture; conditions: Dd2, 72 h; remark: listed apart in the source
# Description: Antimalarial activity against Plasmodium falciparum Dd2 containing attB site inserted in parasite genome and expressing parental ATP4 after 72 hrs by SYBR green based fluorescence assay
# Plasmodium falciparum [19] = assay: microbe, parasite or virus in culture; conditions: Dd2, 72 h; remark: listed apart in the source
# Description: Antimalarial activity against Plasmodium falciparum Dd2 containing attB site inserted in parasite genome and using EF1-alpha promoter driven expressing wild type ATP4 after 72 hrs by SYBR green based fluorescence assay
# Plasmodium berghei [20] = assay: Antimalarial activity against Plasmodium berghei GFP ANKA infected in NMRI mice (Mus musculus) assessed as survival at 30 mg/kg, perorally administered through 7% Tween80/3% Ethanol formulation 24 hrs post infection for 3 days measured 96 hrs post infection; assay type: functional; conditions: route oral
# Plasmodium berghei [21] = assay: Antimalarial activity against Plasmodium berghei GFP ANKA infected in NMRI mice (Mus musculus) assessed as reduction in parasitaemia at 100 mg/kg, perorally administered as single dose 24 hrs post infection for 1 day measured 72 hrs post infection; assay type: functional; design: scale not given: the % may be the effect or the level left; conditions: route oral
# Plasmodium berghei [22] = assay: Antimalarial activity against Plasmodium berghei GFP ANKA infected in NMRI mice (Mus musculus) assessed as reduction in parasitaemia dosed in ETPGS formulation 1 day post infection measured 72 hrs post infection; assay type: functional
# Plasmodium berghei [23] = assay: Antimalarial activity against Plasmodium berghei GFP ANKA infected in NMRI mice (Mus musculus) assessed as reduction in parasitaemia at 30 mg/kg, perorally administered through 7% Tween80/3% Ethanol formulation 24 hrs post infection for 3 days measured 96 hrs post infection; assay type: functional; design: scale not given: the % may be the effect or the level left; conditions: route oral
# Plasmodium berghei [24] = assay: Antimalarial activity against Plasmodium berghei GFP ANKA infected in NMRI mice (Mus musculus) assessed as reduction in parasitaemia dosed in 7% Tween80/3% ethanol formulation 1 day post infection measured 72 hrs post infection; assay type: functional
# Plasmodium falciparum [25] = assay: Inhibition of protein synthesis in NITD609-resistant Plasmodium falciparum Dd2 Clone3 within 1 hrs by [35S]Met/Cys incorporation assay; assay type: functional
# Plasmodium falciparum [26] = assay: Inhibition of protein synthesis in NITD609-resistant Plasmodium falciparum Dd2 Clone1 within 1 hrs by [35S]Met/Cys incorporation assay; assay type: functional
structure (smiles),measurement,setting,value
C/C=C/[C@H]1O[C@@](O)([C@@H](C)[C@H](O)[C@H](C)[C@H]2OC(=O)/C(OC)=C/C(C)=C/[C@@H](C)[C@@H](O)[C@@H](CC)[C@@H](O)[C@H](C)C/C(C)=C/C=C/[C@@H]2OC)C[C@@H](O[C@H]2C[C@@H](O)[C@H](OC(N)=O)[C@@H](C)O2)[C@@H]1C [CONCANAMYCIN A],pIC50,Plasmodium falciparum [1],8.10
same,pIC50,Plasmodium falciparum [2]; read-out: IC50,8.15
same,pIC50,Plasmodium falciparum [3],8.35
same,pIC50,Plasmodium falciparum [4],8.15
CO[C@H]1O[C@@H]2O[C@@]3(C)CC[C@H]4[C@H](C)CC[C@@H]([C@H]1C)[C@@]24OO3,Activity,Plasmodium berghei [5],81%
same,inhibition at 0.008 µM,Plasmodium falciparum [6],> 90%
same,Activity,Plasmodium berghei [7],97%
same,Survival,Plasmodium berghei [8],13.2 days
same,Survival,Plasmodium berghei [9],>7.6 days
same,mean survival time at 10 mg/kg,Plasmodium berghei [10],6.2 days
same,Survival,Plasmodium berghei [11],6.9 days
same,Activity,Plasmodium berghei [12],99.7%
C[C@@H]1CC[C@H]2[C@@H](C)C(=O)O[C@@H]3O[C@@]4(C)CC[C@@H]1[C@]32OO4 [ARTEMISININ],pIC50,Plasmodium falciparum [1],7.74
same,pIC50,Plasmodium falciparum [2]; read-out: IC50,7.80
same,pIC50,Plasmodium falciparum [4],7.89
same,inhibition (INH),Plasmodium falciparum [13],<25%
same,pIC50,Plasmodium falciparum [13],7.82
same,pIC50,Plasmodium falciparum [14],7.75
same,pIC50,Plasmodium falciparum [15],7.70
same,pIC50,Plasmodium falciparum [16],7.76
same,pIC50,Plasmodium falciparum [17],7.79
same,pIC50,Plasmodium falciparum [18],7.81
same,pIC50,Plasmodium falciparum [19],7.77
CCc1nc(N)nc(N)c1-c1ccc(Cl)cc1 [PYRIMETHAMINE],pIC50,Plasmodium falciparum [1],< 4.70
same,pIC50,Plasmodium falciparum [2]; read-out: IC50,< 4.70
same,pIC50,Plasmodium falciparum [3],< 4.70
same,pIC50,Plasmodium falciparum [4],< 4.70
OC(c1cc(C(F)(F)F)nc2c(C(F)(F)F)cccc12)C1CCCCN1 (configuration not stated) [MEFLOQUINE],pIC50,Plasmodium falciparum [1],8.15
same,pIC50,Plasmodium falciparum [2]; read-out: IC50,8.10
same,Activity,Plasmodium berghei [5],95%
same,Survival,Plasmodium berghei [20],14 days
same,Activity,Plasmodium berghei [7],98%
same,Activity,Plasmodium berghei [21],89%
same,pIC50,Plasmodium falciparum [4],8.17
same,ED50,Plasmodium berghei [22],4.2 mg/kg
same,inhibition (INH),Plasmodium falciparum [13],<25%
same,Survival,Plasmodium berghei [8],13.8 days
same,pIC50,Plasmodium falciparum [14],7.89
same,pIC50,Plasmodium falciparum [15],7.90
same,pIC50,Plasmodium falciparum [16],7.85
same,Survival,Plasmodium berghei [9],28 days
same,pIC50,Plasmodium falciparum [17],7.96
same,mean survival time at 10 mg/kg,Plasmodium berghei [10],15.2 days
same,Activity,Plasmodium berghei [23],99.9%
same,Survival,Plasmodium berghei [11],18.2 days
same,ED99,Plasmodium berghei [24],8.6 mg/kg
same,Activity,Plasmodium berghei [12],99.9%
C/C=C(/C)C(=O)O[C@H]1C(C)=C2[C@H]([C@@H]1OC(=O)CCCCCCC)[C@@](C)(OC(C)=O)C[C@H](OC(=O)CCC)[C@@]1(O)[C@H]2OC(=O)[C@@]1(C)O [THAPSIGARGIN],pIC50,Plasmodium falciparum [1],5.96
same,pIC50,Plasmodium falciparum [2]; read-out: IC50,5.98
same,pIC50,Plasmodium falciparum [3],6.04
same,pIC50,Plasmodium falciparum [4],6.09
CC(=O)C1=C(O)[C@@H]2[C@H]3c4c[nH]c5cccc(c45)C[C@H]3C(C)(C)N2C1=O [CYCLOPIAZONIC ACID],pIC50,Plasmodium falciparum [1],5.38
same,pIC50,Plasmodium falciparum [2]; read-out: IC50,5.49
same,pIC50,Plasmodium falciparum [3],5.47
same,pIC50,Plasmodium falciparum [4],5.46
CCN(CC)CCCC(C)Nc1ccnc2cc(Cl)ccc12 (configuration not stated) [CHLOROQUINE],Survival,Plasmodium berghei [20],18.8 days
same,Activity,Plasmodium berghei [21],>99.9%
same,ED50,Plasmodium berghei [22],1.9 mg/kg
same,Survival,Plasmodium berghei [8],15.4 days
same,Survival,Plasmodium berghei [9],12 days
same,mean survival time at 10 mg/kg,Plasmodium berghei [10],8 days
same,Activity,Plasmodium berghei [23],98.6%
same,Survival,Plasmodium berghei [11],8.7 days
same,ED99,Plasmodium berghei [24],8.4 mg/kg
C[C@H]1[C@H](OC(=O)CCC(=O)O)O[C@@H]2O[C@@]3(C)CC[C@H]4[C@H](C)CC[C@@H]1[C@@]24OO3 [ARTESUNATE],Activity,Plasmodium berghei [5],70%
same,Survival,Plasmodium berghei [20],7.2 days
same,Activity,Plasmodium berghei [7],89%
same,ED50,Plasmodium berghei [22],6.2 mg/kg
same,Survival,Plasmodium berghei [8],6.5 days
same,Survival,Plasmodium berghei [9],6.7 days
same,mean survival time at 10 mg/kg,Plasmodium berghei [10],7.3 days
same,Activity,Plasmodium berghei [23],98%
same,ED99,Plasmodium berghei [24],135 mg/kg
same,Activity,Plasmodium berghei [12],92%
COc1ccc(C[C@H]2NC[C@H](O)[C@H]2OC(C)=O)cc1 [ANISOMYCIN],pIC50,Plasmodium falciparum [1],8.04
same,pIC50,Plasmodium falciparum [2]; read-out: IC50,8.19
same,inhibition,Plasmodium falciparum [25],Active
same,pIC50,Plasmodium falciparum [3],8.04
same,pIC50,Plasmodium falciparum [4],8.24
same,pIC50,Plasmodium falciparum [13],7.60
same,inhibition,Plasmodium falciparum [26],Active
C[C@@H]1C[C@@H]([C@H](O)CC2CC(=O)NC(=O)C2)C(=O)[C@@H](C)C1 [CYCLOHEXIMIDE],pIC50,Plasmodium falciparum [1],6.51
same,pIC50,Plasmodium falciparum [2],6.52
same,inhibition,Plasmodium falciparum [25],Active
same,pIC50,Plasmodium falciparum [3],6.49
same,pIC50,Plasmodium falciparum [4],6.54
same,pIC50,Plasmodium falciparum [13],6.70
same,inhibition,Plasmodium falciparum [26],Active
O=C1C(O)=C([C@H]2CC[C@H](c3ccc(Cl)cc3)CC2)C(=O)c2ccccc21 [ATOVAQUONE],pIC50,Plasmodium falciparum [1],9.10
same,pIC50,Plasmodium falciparum [2]; read-out: IC50,9.22
same,pIC50,Plasmodium falciparum [3],9.10
same,pIC50,Plasmodium falciparum [4],9.22
